Measured values taken from patent publication US4937373A, “Substituted naphthalene carboxylic acids” (Hoffmann-La Roche Inc., priority 1988, dated 1990).

Assays:
[1] = tested on: rat peritoneal macrophages (^14 C-arachidonic acid release); test: Rat peritoneal macrophage assay, in vitro: ^14 C release from arachidonic acid metabolism; assay type: cell-based; conditions: stimulated with calcium ionophore A 23187 (5×10^-7 M), ^14 C released
Text: (§1) RAT PERITONEAL MACROPHAGE ASSAY, IN VITRO
(§2) The rat peritoneal macrophage assay measures the ability of a test compound to influence the release of arachidonic acid (AA) from phospholipid stores in the plasma membrane and the subsequent metabolism of AA by the Δ^5 -lipoxygenase (5-LO) and cyclooxygenase (CO) pathways to the final products excreted by the cells: leukotriene B4 (LTB4, from the 5-LO pathway) and prostaglandin E2 (PGE2, from the CO pathway).
(§3) Macrophages were obtained form rats by peritoneal lavaqe with phosphate buffered saline minus Ca^+2 and Mg^+2 (PBS). Cells were washed 3 times with PBS and resuspended in Delbecco's Modified Eagle medium (Gibco Laboratories) containing L-glutamine and D-glucose and supplemented with 10% fetal calf serum. Cells were counted on a Coulter ZBA cell counter and then resuspended to a concentration of 4×10^6 cells/mL. Three mL of the cell suspension were added to plastic culture dishes (3 cm), and then the cells were allowed to adhere for 90 minutes at 37° C. Dishes were washed 3 times with PBS to remove nonadherent cells. ^14 C-AA (ca. […]) were added to the cells (1 μCi/dish) and allowed to incorporate for 90 minutes. Unincorporated ^14 C-AA was removed and the cell layer was again washed 3 times with PBS. Test compounds were dissolved in DMSO and diluted in phosphate-buffered Hank's balanced salt solution to appropriate concentrations. Cells were incubated with test compounds or the solution used to dissolve the test compounds (control) for 30 minutes at 37° C. and were then stimulated with calcium ionophore A 23187 (5×10^-7 M) for 20 minutes. The extracellular fluid was removed and ^14 C radioactivity released into this fluid from AA metabolism was measured by liquid scintillation spectroscopy. The amounts of LTB4 and PGE2, were measured in the extracellular fluid by radioimmunoassay with specific antisera. The effect of a test compound or standard was calculated as a percent inhibition of the maximum effect produced in the presence of A 23187 and expressed as an inhibitory concentration 50% IC50).
(§4) This assay measures inhibition by the test compounds of the 5-LO and the CO pathways of AA metabolism and this inhibition is expressed as an IC50 for LTB4 and PGE2 formation respectively.

[2] = tested on: Δ^5 -lipoxygenase (5-LO) pathway, LTB4 formation in rat peritoneal macrophages; test: Rat peritoneal macrophage assay, in vitro: LTB4 formation (5-LO pathway); assay type: cell-based; conditions: stimulated with calcium ionophore A 23187 (5×10^-7 M), LTB4 by radioimmunoassay
Text: as §1, §2, §3, §4

[3] = tested on: cyclooxygenase (CO) pathway, PGE2 formation in rat peritoneal macrophages; test: Rat peritoneal macrophage assay, in vitro: PGE2 formation (CO pathway); assay type: cell-based; conditions: stimulated with calcium ionophore A 23187 (5×10^-7 M), PGE2 by radioimmunoassay
Text: as §1, §2, §3, §4

[4] = tested on: Rat Acetic Acid Colitis Model; test: Acetic acid-induced colitis in rats, in vivo (myeloperoxidase accumulation); design: species or system rat (Sprague-Dawley)
Text: ACETIC ACID-INDUCED COLITIS IN RATS, IN VIVO
The rat acetic acid induced colitis bioassay has been described by J. E. Krawisz, et al. in Amer. J. Proc. Gastro. Col. Rec. Surg. 31: 11-18 (1980), and by P. Sharon and W. F. Stenson in Gastroenterology 88: 55-63 (1985) and 86: 453-460 (1984). Acetic acid-induced colitis is characterized by the movement of inflammatory cells into the colon, with the number of such cells in the mucosa being measured by the activity of myeloperoxidase, a marker enzyme for these cells. Positive desirable activity is indicated by a reduction in the high levels of myeloperoxidase caused by acetic acid. Male rats (Sprague-Dawley), weighing 150 to 300g, were pretreated twice daily for two days with either the vehicle (water, or dimethylsulfoxide) or the test inhibitor compound suspended in water or dissolved in dimethylsulfoxide and orally administered. On the third day, the animals were dosed the same as on the previous two days, anesthetized with metofane, and 2 ml of 2.5% acetic acid was injected by syringe into the colonic lumen, followed immediately by 3 ml of air and a rinse consisting of 3 ml of phosphate-buffered saline (the acetic acid is present in the lumen for a sufficient period to cause inflammation without producing severe necrosis or irreversible damage). The animals were administered a second dose of the test compound in the same amount about 16 hours later. 24 hours after the acetic acid treatment, the animals were sacrificed, the colonic mucosa was surgically removed and homogenized in an aqueous buffer at pH 6 with a Tissumizer or similar device and myeloperoxidase was measured in the homogenate using o-phenylenediamine as a chromagen, as described by A. Voller, D. E. Bidwell and A. Bartlett in The Enzyme Linked Immunosorbent Assay (ELISA), Zoological Soc., London 1979, pages 29-30. Control animals were pretreated with the vehicle and saline in place of acetic acid.

[5] = target: T1, Δ^5 lipoxygenase from rat basophilic leukemia (RBL-1 cells) (Rattus norvegicus, UniProt P12527); test: In vitro test for Δ^5-lipoxygenase inhibitors; assay type: biochemical; conditions: RBL-1 supernatant enzyme, 6.7 μM [1-^14 C]arachidonic acid, 10 min preincubation; read-out: IC50 value, Δ^5-lipoxygenase inhibition
T1 construct: the resulting supernatant fraction was used as the source of Δ^5 -lipoxygenase; endogenous in cells; host or cells: RBL-1 rat basophilic leukemia cells (supernatant of the homogenate after 49,000 g)
T1 sequence (P12527 1-673): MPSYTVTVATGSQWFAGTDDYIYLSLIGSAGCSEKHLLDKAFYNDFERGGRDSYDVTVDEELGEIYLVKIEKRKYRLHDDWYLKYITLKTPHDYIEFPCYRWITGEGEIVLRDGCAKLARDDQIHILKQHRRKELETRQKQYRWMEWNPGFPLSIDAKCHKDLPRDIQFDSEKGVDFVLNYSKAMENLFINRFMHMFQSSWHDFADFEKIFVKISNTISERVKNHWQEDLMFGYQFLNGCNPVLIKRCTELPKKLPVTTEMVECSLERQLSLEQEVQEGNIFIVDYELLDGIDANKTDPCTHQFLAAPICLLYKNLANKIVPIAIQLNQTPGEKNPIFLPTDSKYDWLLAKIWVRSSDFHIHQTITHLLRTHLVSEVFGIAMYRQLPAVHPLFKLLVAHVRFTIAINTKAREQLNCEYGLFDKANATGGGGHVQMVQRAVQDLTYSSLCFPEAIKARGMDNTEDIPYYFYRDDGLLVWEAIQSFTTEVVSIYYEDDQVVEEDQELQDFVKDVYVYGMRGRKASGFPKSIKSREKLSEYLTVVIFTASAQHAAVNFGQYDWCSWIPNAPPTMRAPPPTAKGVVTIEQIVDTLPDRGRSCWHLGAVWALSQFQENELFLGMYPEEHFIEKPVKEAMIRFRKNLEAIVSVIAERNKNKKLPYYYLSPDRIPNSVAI
Experimental: IN VITRO TEST FOR Δ^5 -LIPOXYGENASE INHIBITORS
In this procedure a compound is tested for its effect on Δ^5 lipoxygenase from rat basophilic leukemia (RBL-1 cells). The activity of this enzyme was determined by measuring the catalytic conversion of [1-^14 C]arachidonic acid to [1-^14 C-5-hydroperoxy- 6,8,11,14-eicosatetraenoic acid ([1-^14 C]-5-HPETE) which leads to the formation of the 5-hydroxy derivative ([1-^14 C]-5-HETE). The Δ^5 -lipoxygenase was derived from the supernatant fraction of lysed RBL-1 cells using a modification of the method previously described by Jakschik and Lee [Nature 287,51 (1980)]. Briefly, RBL-1 cells were lysed by homogenization in ice-cold buffer (50 mM Tris-HCl buffer. PH 7.2, containing 1 mM EDTA and 14 μM indomethacin). The homogenate was centrifuged at 4° at 49,000 g for 20 minutes and the resulting supernatant fraction was used as the source of Δ^5 -lipoxygenase. […] The ethereal extract containing [1-^14 C]-5-HETE and unreacted substrate was analyzed by silica gel TLC using isooctanemethylethyl ketone-acetic acid (100:9:1) as the developing solvent. […] The effect of an inhibitor on Δ^5 -lipoxygenase activity is determined by preincubating the enzyme for 10 minutes at 30° in the presence or absence of various concentrations of the drug prior to addition of substrate. […]

| SMILES | IC50 [1] | IC50 [2] | IC50 [3] | % Inhibition of Myeloperoxidase Accumulation ([4]; 10 mg/kg po) | % Inhibition of Myeloperoxidase Accumulation ([4]; 1 mg/kg po) | IC50 [5] |
| --- | --- | --- | --- | --- | --- | --- |
| C[C@H](C(=O)O)c1ccc2cc(OCCCCCCc3ccc(O)c(O)c3)ccc2c1 [(S)-6-[6-(3,4-dihydroxyphenyl)hexyloxy]-alpha-methyl-2-naphthaleneacetic acid] | 1 µM | 0.6 µM | 3 µM | 13 ± 2% | – | – |
| O=C(O)c1ccc2cc(OCCCCCCc3cccc(O)c3O)ccc2c1 [6-[6-(2,3-Dihydroxyphenyl)hexyloxy]-2-naphthalenecarboxylic acid] | 3 µM | 3 µM | 9 µM | – | 72 ± 8% | – |
| O=C(O)Cc1ccc2cc(OCCCCCCc3cccc(O)c3O)ccc2c1 [6-[6-(2,3-dihydroxyphenyl)hexyloxy]-2-naphthalene acetic acid] | 3 µM | 0.9 µM | 5 µM | – | 72 ± 8% | – |
| CC(C(=O)O)c1ccc2cc(OCCCCCCc3cccc(O)c3O)ccc2c1 (racemic) [(rac)-6-[6-(2,3-Dihydroxyphenyl)hexyloxy]-alpha-methyl-2-naphthalene-aceticacid] | 1 µM | 0.6 µM | 3 µM | 88 ± 17% | – | – |
| C[C@H](C(=O)O)c1ccc2cc(OCCCCCCc3cccc(O)c3O)ccc2c1 [(S)-6-[6-(2,3-dihydroxyphenyl)hexyloxy]-alpha-methyl-2-naphthaleneacetic acid] | 0.9 µM | 0.2 µM | 1 µM | – | 90 ± 11% | 0.012 µM |
| CCOC(=O)[C@@H](C)c1ccc2cc(OCCCCCCc3cccc(O)c3O)ccc2c1 [(S)-6-[6-(2,3-Dihydroxyphenyl)hexyloxy]-alpha-methyl-2-naphthaleneacetic acid ethyl ester] | 3 µM | 0.6 µM | 4 µM | 23 ± 5% | – | – |
